Laboratory results as given in patent US20180282339A1 (OLON S.P.A., priority 2015, published 2018).

Settings: conditions not specified at this place, b45 (heating at 60-120 ° C. for 1-12 hours gives amorphous form)
Protocol: In particular the following tests have been made: • stability at 25° C./40% Relative Humidity for 7 days • stability at 40° C./75% Relative Humidity for 7 days • stability at 25° C./60% Relative Humidity for 7 days • stability at 60° C./40% Relative Humidity for 7 days

C=CC(=O)N1CCC[C@@H](n2nc(-c3ccc(Oc4ccccc4)cc3)c3c(N)ncnc32)C1 [Form L, 1-[(3R)-3-[4-amino-3-(4-phenoxyphenyl)-1H-pyrazolo[3,4-d]pyrimidin-1-yl]piperidin-1-yl]prop-2-en-1-one]
solid form conversion in some conditions: converts in Form A or in the amorphous form
